IC50 data for 25 molecules are collected here from patent US20190275012A9, “SUBSTITUTED THIAZOLO-PYRIDINE COMPOUNDS AS MALT1 INHIBITORS” (Lupin Limited, priority 2016, published 2019).

This assay relates to NF-kB transcriptional activity in HEK-293-NF-kB-Luc cell line overexpressing MALT1. Kind of assay: NF-kB reporter assay (luciferase, MALT1 stably overexpressed). In kind it is cell-based. As to conditions: Homo sapiens, 24 h, HEK-293-NF-kB-Luc cells stably overexpressing MALT1, 24 h treatment, Bright Glo luminescence; read-out: NF-kB inhibition IC50. The method, then: The NF-⇐B reporter assay was performed to screen for MALT1 inhibition mediated reduction in the NF-⇐B transcriptional activity. For this purpose, MALT1 was stably overexpressed in HEK-293—NF-⇐B-Luc cell line. Cells were seeded in poly-D-lysine coated 96-well plates in a culture medium containing the selection markers (DMEM+10% FBS+50 |g/ml Hygromycin+500 |g/ml Geniticin) and allowed to adhere overnight. On the following day, cells were treated with various concentrations of test compounds for 24 h. After 24 h of treatment with test compounds, media was removed from each well and Bright Glo™ (Promega, USA) substrate was added and incubated for further 10 min at ambient temperature. Luminescence was measured for detection of NF-⇐B reporter activity. RLUs (Relative Luminescence Units) were directly proportional to the NF-⇐B activity. % inhibition of NF-⇐B activity was calculated relative to the samples containing media with 0.1% DMSO alone as per the following formula
(A reporter such as luciferase makes a cellular process visible.)
A word on the IC50: it is the concentration that inhibits the measured activity by half. On to `COc1ncc(NC(=O)Nc2cnc3sc(C)nc3c2C2=CCOCC2)cc1Cl` [Compound 58, 1-(5-Chloro-6-methoxypyridin-3-yl)-3-(7-(3,6-dihydro-2H-pyran-4-yl)-2-methylthiazolo[5,4-b]pyridin-6-yl)urea], for which the IC50 lay within 501 to 1500 nM.
As for `COc1ncc(NC(=O)Nc2cnc3sc(C)nc3c2C2CC2)cc1C#N` [Compound 62, 1-(5-Cyano-6-methoxypyridin-3-yl)-3-(7-cyclopropyl-2-methylthiazolo[5,4-b]pyridin-6-yl)urea], the figure is 101 to 500 nM; as for `Cc1nc2c(C3CC3)c(NC(=O)Nc3ccc(-c4nnco4)c(Cl)c3)cnc2s1` [Compound 63, 1-(3-Chloro-4-(1,3,4-oxadiazol-2-yl)phenyl)-3-(7-cyclopropyl-2-methylthiazolo[5,4-b]pyridin-6-yl)urea], 101 to 500 nM.
With `COCC1(c2c(NC(=O)Nc3ccc(-n4nccn4)c(Cl)c3)cnc3sc(C)nc23)CC1` [Compound 64, 1-(3-Chloro-4-(2H-1,2,3-triazol-2-yl)phenyl)-3-(7-(1-(methoxymethyl)cyclopropyl)-2-methylthiazolo[5,4-b]pyridin-6-yl)urea] the figure was 101 to 500 nM; with `Cc1nc2c(N3CCCOCC3)c(NC(=O)Nc3cnc(-n4nccn4)c(Cl)c3)cnc2s1` [Compound 67, 1-(5-Chloro-6-(2H-1,2,3-triazol-2-yl)pyridin-3-yl)-3-(2-methyl-7-(1,4-oxazepan-4-yl)thiazolo[5,4-b]pyridin-6-yl)urea], 101 to 500 nM.
As for `COCCN(c1c(NC(=O)Nc2ccc(-n3nccn3)c(Cl)c2)cnc2sc(C)nc12)C1CC1` [Compound 68, 1-(3-Chloro-4-(2H-1,2,3-triazol-2-yl)phenyl)-3-(7-(cyclopropyl(2-methoxyethyl)amino)-2-methylthiazolo[5,4-b]pyridin-6-yl)urea], the IC50 is 101 to 500 nM.
As for `COc1nc(-n2nccn2)c(Cl)cc1NC(=O)Nc1cnc2sc(C)nc2c1C(OC)C(C)C` (stereo not shown) [Compound 81a, 1-(5-Chloro-2-methoxy-6-(2H-1,2,3-triazol-2-yl)pyridin-3-yl)-3-(7-(1-methoxy-2-methylpropyl)-2-methylthiazolo[5,4-b]pyridin-6-yl)urea], the figure is 1 to 100 nM; as for `COC(c1ccccc1)c1c(NC(=O)Nc2ccc(-n3nccn3)c(Cl)c2)cnc2sc(C)nc12` (stereo not shown) [Compound 82b, 1-(3-Chloro-4-(2H-1,2,3-triazol-2-yl)phenyl)-3-(7-(methoxy(phenyl)methyl)-2-methylthiazolo[5,4-b]pyridin-6-yl)urea], 101 to 500 nM.
With `COc1nc(-n2nccn2)c(C(F)(F)F)cc1NC(=O)Nc1cnc2sc(C)nc2c1C(C)OC` (stereo not shown) [Compound 88a, 1-(2-Methoxy-6-(2H-1,2,3-triazol-2-yl)-5-(trifluoromethyl)pyridin-3-yl)-3-(7-(1-methoxyethyl)-2-methylthiazolo[5,4-b]pyridin-6-yl)urea] the figure was 1 to 100 nM; with `Cc1nc2c(N(C)C3CC3)c(NC(=O)Nc3cnc(-n4nccn4)c(C(F)(F)F)c3)cnc2s1` [Compound 100, 1-(6-(2H-1,2,3-Triazol-2-yl)-5-(trifluoromethyl)pyridin-3-yl)-3-(7-(cyclopropyl(methyl)amino)-2-methylthiazolo[5,4-b]pyridin-6-yl)urea], 1 to 100 nM.
With `Cc1nc2c(C3(CO)CC3)c(NC(=O)Nc3cnc(-n4nccn4)c(Cl)c3)cnc2s1` [Compound 105, 1-(5-Chloro-6-(2H-1,2,3-triazol-2-yl)pyridin-3-yl)-3-(7-(1-(hydroxymethyl)cyclopropyl)-2-methylthiazolo[5,4-b]pyridin-6-yl)urea], the IC50 fell in the range of 1 to 100 nM.
As for `COc1ncc(NC(=O)Nc2cnc3sc(C)nc3c2C2(C)CC2)cc1Cl` [Compound 117, 1-(5-Chloro-6-methoxypyridin-3-yl)-3-(2-methyl-7-(1-methylcyclopropyl)thiazolo[5,4-b]pyridin-6-yl)urea], the IC50 lay in the range of 1 to 100 nM.
As for `Cc1ncn(-c2ccc(NC(=O)Nc3cnc4sc(C)nc4c3C3CC3)cc2Cl)n1` [Compound 173, 1-(3-Chloro-4-(3-methyl-1H-1,2,4-triazol-1-yl)phenyl)-3-(7-cyclopropyl-2-methylthiazolo[5,4-b]pyridin-6-yl)urea], the figure is 501 to 1500 nM; as for `Cc1nc2c(C3CC3)c(NC(=O)Nc3ccc(-n4ncnc4C)c(Cl)c3)cnc2s1` [Compound 174, 1-(3-Chloro-4-(5-methyl-1H-1,2,4-triazol-1-yl)phenyl)-3-(7-cyclopropyl-2-methylthiazolo[5,4-b]pyridin-6-yl)urea], 501 to 1500 nM.
As for `COc1ncc(NC(=O)Nc2cnc3sc(C)nc3c2C2CC2)cc1Br` [Compound 175, 1-(5-Bromo-6-methoxypyridin-3-yl)-3-(7-cyclopropyl-2-methylthiazolo[5,4-b]pyridin-6-yl)urea], the figure is 501 to 1500 nM; as for `Cc1nc2c(C3(C)CC3)c(NC(=O)Nc3cnc(-n4nccn4)c(C(F)(F)F)c3)cnc2s1` [Compound 177, 1-(6-(2H-1,2,3-triazol-2-yl)-5-(trifluoromethyl)pyridin-3-yl)-3-(2-methyl-7-(1-methyleyelopropyl)thiazolo[5,4-b]pyridin-6-yl)urea], 1 to 100 nM.
In the case of `COc1nc(-n2nccn2)c(Cl)cc1NC(=O)Nc1cnc2sc(C)nc2c1C1(C)CC1` [Compound 178, 1-(5-Chloro-2-methoxy-6-(2H-1,2,3-triazol-2-yl)pyridin-3-yl)-3-(2-methyl-7-(1-methyleyelopropyl)thiazolo[5,4-b]pyridin-6-yl)urea], the IC50 lay in the range of 1 to 100 nM.
Consider `COc1nc(-n2nccn2)c(Cl)cc1NC(=O)Nc1cnc2sc(C)nc2c1C(C)C` [Compound 184, 1-(5-Chloro-2-methoxy-6-(2H-1,2,3-triazol-2-yl)pyridin-3-yl)-3-(7-isopropyl-2-methylthiazolo[5,4-b]pyridin-6-yl)urea], for which the IC50 lay within 1 to 100 nM.
As for `COc1nc(OC)c(NC(=O)Nc2cnc3sc(C)nc3c2C(C)C)cc1Cl` [Compound 186, 1-(5-Chloro-2,6-dimethoxypyridin-3-yl)-3-(7-isopropyl-2-methylthiazolo[5,4-b]pyridin-6-yl)urea], the figure is 501 to 1500 nM; as for `Cc1nc2c(C(C)C)c(NC(=O)Nc3ccc(-n4nccn4)c(Cl)c3)cnc2s1` [Compound 188, 1-(3-Chloro-4-(2H-1,2,3-triazol-2-yl)phenyl)-3-(7-isopropyl-2-methylthiazolo[5,4-b]pyridin-6-yl)urea], 101 to 500 nM; as for `Cc1nc2c(C(C3CC3)N(C)C)c(NC(=O)Nc3cnc(-n4nccn4)c(Cl)c3)cnc2s1` (stereo not shown) [Compound 228b, 1-(5-Chloro-6-(2H-1,2,3-triazol-2-yl)pyridin-3-yl)-3-(7-(cyclopropyl(dimethylamino)methyl)-2-methylthiazolo[5,4-b]pyridin-6-yl)urea], 1 to 100 nM.
For the molecule `CCC(c1c(NC(=O)Nc2cnc(-n3nccn3)c(C(F)(F)F)c2)cnc2sc(C)nc12)N1CC(F)(F)C1` (stereo not shown) [Compound 229b, 1-(6-(2H-1,2,3-Triazol-2-yl)-5-(trifluoromethyl)pyridin-3-yl)-3-(7-(1-(3,3-difluoroazetidin-1-yl)propyl)-2-methylthiazolo[5,4-b]pyridin-6-yl)urea], the half-inhibitory concentration (IC50) lay within 1 to 100 nM.
With `Cc1nc2c(C(N(C)C)C(F)(F)F)c(NC(=O)Nc3cnc(-n4nccn4)c(C(F)(F)F)c3)cnc2s1` (stereo not shown) [Compound 230b, 1-(6-(2H-1,2,3-triazol-2-yl)-5-(trifluoromethyl)pyridin-3-yl)-3-(7-(1-(dimethylamino)-2,2,2-trifluoroethyl)-2-methylthiazolo[5,4-b]pyridin-6-yl)urea] the figure was 1 to 100 nM; with `Cc1nc2c(C(N(C)C)C(F)(F)F)c(NC(=O)Nc3cnc(-n4nccn4)c(Cl)c3)cnc2s1` (stereo not shown) [Compound 231b, 1-(5-Chloro-6-(2H-1,2,3-triazol-2-yl)pyridin-3-yl)-3-(7-(1-(dimethylamino)-2,2,2-trifluoroethyl)-2-methylthiazolo[5,4-b]pyridin-6-yl)urea], 1 to 100 nM; with `CCc1nc2c(C(C)OC)c(NC(=O)Nc3cnc(-n4nccn4)c(C(F)(F)F)c3)cnc2s1` (stereo not shown) [Compound 232b, 1-(6-(2H-1,2,3-Triazol-2-yl)-5-(trifluoromethyl)pyridin-3-yl)-3-(2-ethyl-7-(1-methoxyethyl)thiazolo[5,4-b]pyridin-6-yl)urea], 1 to 100 nM.
